Source: patent US8410161B2, “Thioxanthone ring system derivatives” (National Defense Medical Center, priority 2010, dated 2013)

Legend:
HL-60(TB) = assay: NCI in vitro DTP human cell line screen, HL-60(TB); format: cell-based; conditions: Leukemia, 1.00E−5 Molar
Description: (§1) Then, a cell toxicity assay of the cancer lines made by National Cancer Institute will be discussed as follows. The cell toxicity assay is performed by choosing ten compounds (existing certification numbers) from the 59 compounds disclosed in the present invention first.

EKVX = assay: NCI in vitro DTP human cell line screen, EKVX; format: cell-based; conditions: Non-Small Cell Lung Cancer, 1.00E−5 Molar
Description: as §1

NCI-H226 = assay: NCI in vitro DTP human cell line screen, NCI-H226; format: cell-based; conditions: Non-Small Cell Lung Cancer, 1.00E−5 Molar
Description: as §1

NCI-H23 = assay: NCI in vitro DTP human cell line screen, NCI-H23; format: cell-based; conditions: Non-Small Cell Lung Cancer, 1.00E−5 Molar
Description: as §1

NCI-H460 = assay: NCI in vitro DTP human cell line screen, NCI-H460; format: cell-based; conditions: Non-Small Cell Lung Cancer, 1.00E−5 Molar
Description: as §1

HT29 = assay: NCI in vitro DTP human cell line screen, HT29; format: cell-based; conditions: Colon Cancer, 1.00E−5 Molar
Description: as §1

SNB-75 = assay: NCI in vitro DTP human cell line screen, SNB-75; format: cell-based; conditions: CNS Cancer, 1.00E−5 Molar
Description: as §1

LOX IMVI = assay: NCI in vitro DTP human cell line screen, LOX IMVI; format: cell-based; conditions: Melanoma, 1.00E−5 Molar
Description: as §1

MALME-3M = assay: NCI in vitro DTP human cell line screen, MALME-3M; format: cell-based; conditions: Melanoma, 1.00E−5 Molar
Description: as §1

SK-MEL-2 = assay: NCI in vitro DTP human cell line screen, SK-MEL-2; format: cell-based; conditions: Melanoma, 1.00E−5 Molar
Description: as §1

OVCAR-3 = assay: NCI in vitro DTP human cell line screen, OVCAR-3; format: cell-based; conditions: Ovarian Cancer, 1.00E−5 Molar
Description: as §1

NCI/ADR-RES = assay: NCI in vitro DTP human cell line screen, NCI/ADR-RES; format: cell-based; conditions: Ovarian Cancer, 1.00E−5 Molar
Description: as §1

CAKI-1 = assay: NCI in vitro DTP human cell line screen, CAKI-1; format: cell-based; conditions: Renal Cancer, 1.00E−5 Molar
Description: as §1

DU145 = assay: NCI in vitro DTP human cell line screen, DU145; format: cell-based; conditions: Prostate Cancer, 1.00E−5 Molar
Description: as §1

60 cancer lines = assay: NCI cell toxicity assay of 60 cancer lines, whole panel summary; format: cell-based, human; conditions: 1.00E−5 Molar; for Growth Percent, Mean: mean over all cell lines; for cancer types with the better inhibition effect (in words): summary of Table 3
Description: as §1

HEL299 fibroblast = assay: MTT assay, HEL299 fibroblast; format: cell-based
Source text: Please refer to FIG. 4C, various cell viabilities of the HEL299 cell lines can be obtained through the MTT assay while the compounds No. 1˜30 are used to treat HEL299 cell lines, wherein HEL299 cell lines are fibroblast.

## CCCSc1ccc2c(=O)c3ccccc3sc2c1Cl [No. 3, 4-Chloro-3-(propylthio)-9H-thioxanthen-9-one]
HL-60(TB)
  Growth Percent: 118.59%
EKVX
  Growth Percent: 96.42%
NCI-H226
  Growth Percent: 94.52%
NCI-H23
  Growth Percent: 91.47%
NCI-H460
  Growth Percent: 59.83%
HT29
  Growth Percent: 103.50%
SNB-75
  Growth Percent: 100.85%
LOX IMVI
  Growth Percent: 64.69%
MALME-3M
  Growth Percent: 92.96%
SK-MEL-2
  Growth Percent: 114.59%
OVCAR-3
  Growth Percent: 90.35%
NCI/ADR-RES
  Growth Percent: 93.97%
CAKI-1
  Growth Percent: 78.97%
DU145
  Growth Percent: 91.93%
60 cancer lines
  Growth Percent, Mean: 91.31%
  cancer types with the better inhibition effect (in words): better inhibition effect on non-small cell lung cancer

## O=c1c2ccccc2sc2c(Cl)c(SCc3ccccc3)ccc12 [No. 23, 3-(Benzylthio)-4-chloro-9H-thioxanthen-9-one]
HEL299 fibroblast; HEL299, normal fibroblast
  cell viabilities of HEL299 cell lines (MTT assay): 85.2 ± 5.26%
HL-60(TB)
  Growth Percent: 115.59%
EKVX
  Growth Percent: 93.46%
NCI-H226
  Growth Percent: 90.97%
NCI-H23
  Growth Percent: 97.59%
NCI-H460
  Growth Percent: 29.14%
HT29
  Growth Percent: 60.70%
SNB-75
  Growth Percent: 75.12%
LOX IMVI
  Growth Percent: 62.94%
MALME-3M
  Growth Percent: 93.38%
SK-MEL-2
  Growth Percent: 116.81%
OVCAR-3
  Growth Percent: 76.97%
NCI/ADR-RES
  Growth Percent: 90.62%
CAKI-1
  Growth Percent: 54.75%
DU145
  Growth Percent: 107.70%
60 cancer lines
  Growth Percent, Mean: 81.22%
  cancer types with the better inhibition effect (in words): better inhibition effect on Leukemia, non-small cell lung cancer, colorectal cancer, central nervous system cancer, ovarian cancer and kidney cancer

## O=c1c2ccccc2sc2c(Cl)c(SCc3ccc(Cl)cc3)ccc12 [No. 26, 4-Chloro-3-(4-chlorobenzylthio)-9H-thioxanthen-9-one]
HL-60(TB)
  Growth Percent: 105.29%
EKVX
  Growth Percent: 110.82%
NCI-H226
  Growth Percent: 94.77%
NCI-H23
  Growth Percent: 96.57%
NCI-H460
  Growth Percent: 106.85%
HT29
  Growth Percent: 103.09%
SNB-75
  Growth Percent: 96.90%
LOX IMVI
  Growth Percent: 97.16%
MALME-3M
  Growth Percent: 105.22%
SK-MEL-2
  Growth Percent: 90.37%
OVCAR-3
  Growth Percent: 130.11%
NCI/ADR-RES
  Growth Percent: 100.89%
CAKI-1
  Growth Percent: 98.76%
DU145
  Growth Percent: 108.56%
60 cancer lines
  Growth Percent, Mean: 99.47%

## COc1ccc(CSc2ccc3c(=O)c4ccccc4sc3c2Cl)cc1 [No. 27, 4-Chloro-3-(4-methoxybenzylthio)-9H-thioxanthen-9-one]
HEL299 fibroblast
  cytotoxicity effect on the normal fibroblast (in words): without the cytotoxicity effect
HL-60(TB)
  Growth Percent: 121.13%
EKVX
  Growth Percent: 114.01%
NCI-H226
  Growth Percent: 100.46%
NCI-H23
  Growth Percent: 99.92%
NCI-H460
  Growth Percent: 107.02%
HT29
  Growth Percent: 108.69%
SNB-75
  Growth Percent: 97.97%
LOX IMVI
  Growth Percent: 101.59%
MALME-3M
  Growth Percent: 107.44%
SK-MEL-2
  Growth Percent: 104.94%
OVCAR-3
  Growth Percent: 125.16%
NCI/ADR-RES
  Growth Percent: 106.73%
CAKI-1
  Growth Percent: 102.18%
DU145
  Growth Percent: 114.70%
60 cancer lines
  Growth Percent, Mean: 103.13%
